# Measurements published in patent US8916702B2 (priority 2012, dated 2014).
# Tested on: HCV pseudoparticles (genotype 1a HCV E1 and E2 envelope, H77C isolate)
# Assay: microbe, parasite or virus in culture
# Format: cell-based
# Details: Hepatitis C virus, Huh-7, 48 h, HCV pseudoparticles (genotype 1a, H77C) in Huh7 cells; average of duplicate; luciferase 2 days after infection
row,SMILES,EC50
1,COC(=O)[C@H](CNC(=O)C(=O)Nc1ccc(N2CCN(C(C)=O)CC2)cc1)NC(=O)c1ccc(Nc2nc(NC3(c4ccc(Cl)cc4)CC3)nc(OCC(F)(F)F)n2)cc1 [Compound 3186],0.7 nM

# Same assay, conditions: Hepatitis C virus, Huh-7, 48 h, HCV pseudoparticles, Huh7 cells, luciferase 2 days after infection; average of duplicates
row,SMILES,EC50
1,CC(C)(O)C=Cc1cccc(NC(=O)C(=O)NCC[C@H](NC(=O)c2ccc(Nc3nc(NC4(c5ccc(Cl)cc5)CC4)nc(OCC(F)(F)F)n3)cc2)C(=O)O)c1 [Compound 3648],0.2 nM
2,COC(=O)[C@H](CNC(=O)C(=O)Nc1cccc(Oc2cccnc2)c1)NC(=O)c1ccc(Nc2nc(NC3(c4ccc(Cl)cc4)CC3)nc(OCC(F)(F)F)n2)cc1 [Compound 3737],1.63 nM
3,CCc1cccc(NC(=O)C(=O)NC[C@H](NC(=O)c2ccc(Nc3nc(NC4(c5ccc(Cl)cc5)CC4)nc(OCC(F)(F)F)n3)cc2)C(=O)Cl)c1 [Compound 3744],1.18 nM

# Same assay, conditions: Hepatitis C virus, Huh-7, 48 h, read-out: Activity (EC50 class), HCV pseudoparticle infection of Huh7 cells, luciferase 2 days after infection; EC50 expressed as class A/B
row,SMILES,EC50
1,"CCOC(=O)[C@H](CNC(=O)C(=O)NC)NC(=O)c1ccc(Nc2nc(NC3(c4ccc(Cl)cc4)CC3)nc(OCC(F)(F)F)n2)cc1 [Compound 1024, (S)-ethyl 2-(4-(4-(1-(4-chlorophenyl)cyclopropylamino)-6-(2,2,2-trifluoroethoxy)-1,3,5-triazin-2-ylamino)benzamido)-3-(2-(methylamino)-2-oxoacetamido)propanoate]",0.01 to 10 nM
2,O=C(NCC[C@H](NC(=O)c1ccc(Nc2nc(NC3(c4ccc(Cl)cc4)CC3)nc(OCC(F)(F)F)n2)cc1)C(=O)O)C(=O)NCC1OCCc2ccccc21 (some centres unmarked) [Compound 1341],0.01 to 10 nM
3,"CCOC(=O)[C@H](CCCNC(=O)C(=O)NC)NC(=O)c1ccc(Nc2nc(NC3(c4ccc(Cl)cc4)CC3)nc(OCC(F)(F)F)n2)cc1 [Compound 1030, (S)-ethyl 2-(4-(4-(1-(4-chlorophenyl)cyclopropylamino)-6-(2,2,2-trifluoroethoxy)-1,3,5-triazin-2-ylamino)benzamido)-5-(2-(methylamino)-2-oxoacetamido)pentanoate]",0.01 to 10 nM
4,CC(C)(CNC(=O)C(=O)N1CCCCC1)CNC(=O)c1ccc(Nc2nc(NC3(c4ccc(Cl)cc4)CC3)nc(OCC(F)(F)F)n2)cc1 [Compound 1550],0.01 to 10 nM
5,COC(=O)[C@H](CCNC(=O)C(=O)NCc1ccc(OC)cc1)NC(=O)c1ccc(Nc2nc(NC3(c4ccc(Cl)cc4)CC3)nc(OCC(F)(F)F)n2)cc1 [Compound 1146],0.01 to 10 nM
6,COC(=O)[C@H](CCNC(=O)C(=O)NCc1ccc(F)cc1)NC(=O)c1ccc(Nc2nc(NC3(c4ccc(Cl)cc4)CC3)nc(OCC(F)(F)F)n2)cc1 [Compound 1145],0.01 to 10 nM
7,COc1ccccc1CNC(=O)C(=O)NC[C@H](NC(=O)c1ccc(Nc2nc(NC3(c4ccc(Cl)cc4)CC3)nc(OCC(F)(F)F)n2)cc1)C(=O)O [Compound 1165],0.01 to 10 nM
8,C[C@H]1[C@@H](NC(=O)C(=O)NCC[C@H](NC(=O)c2ccc(Nc3nc(NC4(c5ccc(Cl)cc5)CC4)nc(OCC(F)(F)F)n3)cc2)C(=O)O)C[C@H]2C[C@@H]1C2(C)C [Compound 1123],0.01 to 10 nM
9,C[C@H]1[C@@H](NC(=O)C(=O)NC[C@H](NC(=O)c2ccc(Nc3nc(NC4(c5ccc(Cl)cc5)CC4)nc(OCC(F)(F)F)n3)cc2)C(=O)O)C[C@H]2C[C@@H]1C2(C)C [Compound 1094],0.01 to 10 nM
10,"CN(C)C(=O)C(=O)NC[C@H](NC(=O)c1ccc(Nc2nc(NC3(c4ccc(Cl)cc4)CC3)nc(OCC(F)(F)F)n2)cc1)C(=O)O [Compound 1007, (S)-2-(4-(4-(1-(4-chlorophenyl)cyclopropylamino)-6-(2,2,2-trifluoroethoxy)-1,3,5-triazin-2-ylamino)benzamido)-3-(2-(dimethylamino)-2-oxoacetamido)propanoic acid]",0.01 to 10 nM
11,CC(C)(CNC(=O)C(=O)Nc1ccc(O)cc1)CNC(=O)c1ccc(Nc2nc(NCc3ccc(O)cc3)nc(OCC(F)(F)F)n2)cc1 [Compound 1496],0.01 to 10 nM
12,COC(=O)[C@H](CCNC(=O)C(=O)NCC1CCCN(C(=O)OC(C)(C)C)C1)NC(=O)c1ccc(Nc2nc(NC3(c4ccc(Cl)cc4)CC3)nc(OCC(F)(F)F)n2)cc1 (some centres unmarked) [Compound 1200],0.01 to 10 nM
13,COC(=O)[C@H](CNC(=O)C(=O)NCC1CC[C@H]2C[C@@H]1C2(C)C)NC(=O)c1ccc(Nc2nc(NC3(c4ccc(Cl)cc4)CC3)nc(OCC(F)(F)F)n2)cc1 (some centres unmarked) [Compound 1453],0.01 to 10 nM

# Same assay, conditions: Hepatitis C virus, Huh-7, 48 h, read-out: Activity (EC50 class), HCV pseudoparticles, Huh7 cells, luciferase 2 days after infection; average of duplicates
row,SMILES,EC50
1,CC(C)(O)C=Cc1cccc(NC(=O)C(=O)NCC[C@H](NC(=O)c2ccc(Nc3nc(NC4(c5ccc(Cl)cc5)CC4)nc(OCC(F)(F)F)n3)cc2)C(=O)O)c1 [Compound 3648],0.01 to 10 nM
2,COC(=O)[C@H](CNC(=O)C(=O)Nc1cccc(Oc2cccnc2)c1)NC(=O)c1ccc(Nc2nc(NC3(c4ccc(Cl)cc4)CC3)nc(OCC(F)(F)F)n2)cc1 [Compound 3737],0.01 to 10 nM
3,Cc1ccc2sc(NC(=O)C(=O)NCC(C)(C)CNC(=O)c3ccc(Nc4nc(NC5(c6ccc(Cl)cc6)CC5)nc(OCC(F)(F)F)n4)cc3)nc2c1 [Compound 3818],0.01 to 10 nM
4,"Cc1ccc(NC(=O)C(=O)NCC(C)(C)CNC(=O)c2ccc(Nc3nc(NC4(c5ccc(Cl)cc5)CC4)nc(OCc4ccc(C(C)C)cc4)n3)cc2F)cc1 [Compound 3827, N^1-(3-(4-((4-((1-(4-chlorophenyl)cyclopropyl)amino)-6-((4-isopropylbenzyl)oxy)-1,3,5-triazin-2-yl)amino)-2-fluorobenzamido)-2,2-dimethylpropyl)-N^2-(p-tolyl)oxalamide]",0.01 to 10 nM
5,CCc1cccc(NC(=O)C(=O)NC[C@H](NC(=O)c2ccc(Nc3nc(NC4(c5ccc(Cl)cc5)CC4)nc(OCC(F)(F)F)n3)cc2)C(=O)Cl)c1 [Compound 3744],0.01 to 10 nM
6,CCCNc1ccc(NC(=O)C(=O)NCC[C@H](NC(=O)c2ccc(Nc3nc(NC4(c5ccc(Cl)cc5)CC4)nc(OCC(F)(F)F)n3)cc2)C(=O)O)cn1 [Compound 3657],0.01 to 10 nM
7,O=C(NC[C@H](NC(=O)c1ccc(Nc2nc(NC3(c4ccc(Cl)cc4)CC3)nc(OCC(F)(F)F)n2)cc1)C(=O)O)C(=O)Nc1ccc(Oc2ccccc2)nc1 [Compound 3771],0.01 to 10 nM

# Same assay, conditions: Hepatitis C virus, Huh-7, read-out: Activity (EC50 class), HCV pseudoparticles (genotype 1a, H77C) in Huh7 cells; EC50 expressed as class A/B
row,SMILES,EC50
1,CN(CCCN(C)C(=O)c1ccc(Nc2nc(NC3(c4ccc(Cl)cc4)CC3)nc(OCC(F)(F)F)n2)cc1)C(=O)C(=O)NC1CCCCC1 [Compound 3429],0.01 to 10 nM
2,CC(C)(CNC(=O)C(=O)Nc1ccccc1-c1nnco1)CNC(=O)c1ccc(Nc2nc(NC3(c4ccc(Cl)cc4)CC3)nc(OCC(F)(F)F)n2)cc1 [Compound 3246],0.01 to 10 nM
3,CC(C)(CNC(=O)C(=O)N1CCOCC1)CNC(=O)c1ccc(Nc2nc(NC3(c4ccc(Cl)cc4)CC3)nc(OCC(F)(F)F)n2)cc1 [Compound 3381],0.01 to 10 nM
4,COC(=O)[C@H](CCNC(=O)C(=O)Nc1ccc(N2CCOCC2)cc1)NC(=O)c1ccc(Nc2nc(NC3(c4ccc(Cl)cc4)CC3)nc(OCC(F)(F)F)n2)cc1 [Compound 3112],0.01 to 10 nM
5,O=C(NC[C@H](NC(=O)c1ccc(Nc2nc(NC3(c4ccc(Cl)cc4)CC3)nc(OCC(F)(F)F)n2)cc1)C(=O)O)C(=O)Nc1ccc(-c2ccncc2)cc1 [Compound 3266],0.01 to 10 nM
6,CC(C)(CNC(=O)C(=O)Nc1ccc2nccnc2c1)CNC(=O)c1ccc(Nc2nc(NC3(c4ccc(Cl)cc4)CC3)nc(OCC(F)(F)F)n2)cc1 [Compound 3026],0.01 to 10 nM
7,COC(=O)[C@H](CNC(=O)C(=O)Nc1ccc(-c2csc(N3CCOCC3)n2)cc1)NC(=O)c1ccc(Nc2nc(NC3(c4ccc(Cl)cc4)CC3)nc(OCC(F)(F)F)n2)cc1 [Compound 3201],0.01 to 10 nM
8,COc1cccc(NC(=O)C(=O)NCC(C)(C)CNC(=O)c2ccc(Nc3nc(NC4(c5ccc(Cl)cc5)CC4)nc(OCC(F)(F)F)n3)cc2)n1 [Compound 3252],0.01 to 10 nM
9,Cc1ccc(NC(=O)C(=O)NCCCCNC(=O)c2ccc(Nc3nc(NC4(c5ccc(Cl)cc5)CC4)nc(OCC(F)(F)F)n3)cc2)cc1 [Compound 3393],0.01 to 10 nM
10,COC(=O)[C@H](CNC(=O)C(=O)Nc1ccc(N2CCN(C(C)=O)CC2)cc1)NC(=O)c1ccc(Nc2nc(NC3(c4ccc(Cl)cc4)CC3)nc(OCC(F)(F)F)n2)cc1 [Compound 3186],0.01 to 10 nM
11,Cc1nc(-c2ccc(NC(=O)C(=O)NC[C@H](NC(=O)c3ccc(Nc4nc(NC5(c6ccc(Cl)cc6)CC5)nc(OCC(F)(F)F)n4)cc3)C(=O)O)cc2)cs1 [Compound 3275],0.01 to 10 nM
